The supplement of paper PMC10307832

Columns and labels:
Assay in all cases: relative viability (nuclei count vs DMSO), 5 days (fraction); higher = more cells survive
KN-93 + Dasatinib = compound: CN(C/C=C/C1=CC=C(C=C1)Cl)CC2=CC=CC=C2N(CCO)S(=O)(=O)C3=CC=C(C=C3)OC [KN-93] + Cc1nc(Nc2ncc(C(=O)Nc3c(C)cccc3Cl)s2)cc(N2CCN(CCO)CC2)n1 [Dasatinib] (partner 0.075 µM)
Summary of the method: (§1)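 The day after seeding in 1536-well plates, lung cancer cell lines were treated by pin tool with a single drug, or with a fixed anchor-drug dose together with five library-drug doses (not always all listed) in √10 steps. After 5 days, a combined fix-and-stain solution (final 0.05% Triton X-100, 1% formaldehyde, 1 ug/ml Hoechst) was added. Nuclei counted on 4× images gave relative viability as treated counts over vehicle counts, reported as the median of duplicate plates.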

KN-93 + Pictilisib = compound: CN(C/C=C/C1=CC=C(C=C1)Cl)CC2=CC=CC=C2N(CCO)S(=O)(=O)C3=CC=C(C=C3)OC [KN-93] + CS(=O)(=O)N1CCN(Cc2cc3nc(-c4cccc5[nH]ncc45)nc(N4CCOCC4)c3s2)CC1 [Pictilisib] (partner 1 µM)
Summary of the method: as §1

KN-93 + Phenformin = compound: CN(C/C=C/C1=CC=C(C=C1)Cl)CC2=CC=CC=C2N(CCO)S(=O)(=O)C3=CC=C(C=C3)OC [KN-93] + N=C(N)NC(=N)NCCc1ccccc1 [Phenformin] (partner 250 µM)
Summary of the method: as §1

KN-93 + Alpelisib = compound: CN(C/C=C/C1=CC=C(C=C1)Cl)CC2=CC=CC=C2N(CCO)S(=O)(=O)C3=CC=C(C=C3)OC [KN-93] + Cc1nc(NC(=O)N2CCC[C@H]2C(N)=O)sc1-c1ccnc(C(C)(C)C(F)(F)F)c1 [Alpelisib] (partner 2 µM)
Summary of the method: as §1

KN-93 + Lapatinib = compound: CN(C/C=C/C1=CC=C(C=C1)Cl)CC2=CC=CC=C2N(CCO)S(=O)(=O)C3=CC=C(C=C3)OC [KN-93] + CS(=O)(=O)CCNCc1ccc(-c2ccc3ncnc(Nc4ccc(OCc5cccc(F)c5)c(Cl)c4)c3c2)o1 [Lapatinib] (partner 2 µM)
Summary of the method: as §1

Cell Line | relative viability (KN-93 + Dasatinib; first compound 0.08 µM) | relative viability (KN-93 + Dasatinib; first compound 0.253 µM) | relative viability (KN-93 + Dasatinib; first compound 2.53 µM) | relative viability (KN-93 + Dasatinib; first compound 8 µM) | relative viability (KN-93 + Pictilisib; first compound 0.08 µM) | relative viability (KN-93 + Pictilisib; first compound 0.253 µM) | relative viability (KN-93 + Pictilisib; first compound 2.53 µM) | relative viability (KN-93 + Pictilisib; first compound 8 µM) | relative viability (KN-93 + Phenformin; first compound 0.08 µM) | relative viability (KN-93 + Phenformin; first compound 0.253 µM) | relative viability (KN-93 + Phenformin; first compound 2.53 µM) | relative viability (KN-93 + Phenformin; first compound 8 µM) | relative viability (KN-93 + Alpelisib; first compound 0.08 µM) | relative viability (KN-93 + Alpelisib; first compound 0.253 µM) | relative viability (KN-93 + Alpelisib; first compound 2.53 µM) | relative viability (KN-93 + Alpelisib; first compound 8 µM) | relative viability (KN-93 + Lapatinib; first compound 0.08 µM) | relative viability (KN-93 + Lapatinib; first compound 0.253 µM) | relative viability (KN-93 + Lapatinib; first compound 2.53 µM) | relative viability (KN-93 + Lapatinib; first compound 8 µM)
NCI-H358 | 0.182 | 0.168 | 0.15 | 0.148 | 0.39 | 0.381 | 0.327 | 0.28 | 0.32 | 0.444 | 0.384 | 0.251 | 0.843 | 0.992 | 0.72 | 0.319 | 0.49 | 0.528 | 0.444 | 0.291
NCI-H460 | 0.489 | 0.526 | 0.726 | 0.35 | 0.301 | 0.329 | 0.465 | 0.117 | 0.299 | 0.565 | 0.552 | 0.396 | 0.47 | 0.649 | 0.42 | 0.203 | 0.302 | 1.27 | 1.12 | 0.45
NCI-H520 | 0.203 | 0.197 | 0.258 | 0.155 | – | 0.32 | 0.297 | 0.26 | 0.732 | 0.769 | 0.842 | 0.451 | – | 1.38 | 1.05 | 0.763 | – | 0.904 | 1.05 | 0.727
NCI-H596 | 0.607 | 0.642 | 0.587 | 0.421 | 0.419 | 0.361 | 0.381 | 0.368 | 0.728 | 0.95 | 0.69 | 0.45 | 0.442 | 0.459 | 0.51 | 0.334 | 1.05 | 0.945 | 1.23 | 0.985
NCI-H647 | 0.161 | 0.216 | 0.253 | 0.164 | 0.493 | 0.327 | 0.462 | 0.336 | 0.696 | 0.552 | 0.643 | 0.484 | 1.39 | 1.52 | 1.32 | 0.717 | 0.836 | 1.07 | 1.26 | 0.819
NCI-H650 | 0.465 | 0.526 | 0.417 | 0.355 | 0.906 | 0.892 | 1.06 | 0.605 | 0.481 | 0.47 | 0.449 | 0.414 | 1.04 | 1.34 | 1.04 | 0.65 | 1.19 | 1.04 | 1.29 | 0.615
NCI-H661 | 1.01 | 0.808 | 0.69 | 0.413 | 0.396 | 0.417 | 0.336 | 0.253 | 0.307 | 0.273 | 0.26 | 0.294 | 0.578 | 0.597 | 0.796 | 0.161 | 0.484 | 0.511 | 0.448 | 0.447
NCI-H727 | 0.44 | 0.399 | 0.415 | 0.237 | 0.434 | 0.264 | 0.379 | 0.231 | 0.576 | 0.601 | 0.814 | 0.533 | 0.466 | 0.525 | 0.563 | 0.378 | 0.776 | 0.762 | 0.802 | 0.486
NCI-H838 | 0.32 | 0.236 | 0.334 | 0.239 | 0.556 | 0.378 | 0.391 | 0.362 | 0.648 | 0.565 | 0.596 | 0.547 | 0.989 | 0.911 | 1.09 | 0.887 | 0.903 | 0.78 | 1.12 | 0.746
NCI-H1355 | 0.588 | 0.551 | 0.695 | 0.503 | 0.391 | 0.352 | 0.389 | 0.295 | 0.497 | 0.456 | 0.438 | 0.427 | 0.731 | 0.719 | 0.946 | 0.697 | 0.954 | 0.79 | 1.05 | 0.913
NCI-H1395 | 0.428 | 0.402 | 0.708 | 0.31 | 0.654 | 0.682 | 1.02 | 0.477 | 0.477 | 0.449 | 0.48 | 0.449 | 1.16 | 1.1 | 1.05 | 0.506 | 1.63 | 1.11 | 1.04 | 0.679
NCI-H1437 | 0.457 | 0.44 | 0.374 | 0.153 | 0.416 | 0.379 | 0.394 | 0.301 | 0.396 | 0.292 | 0.352 | 0.31 | 0.876 | 1.25 | 0.88 | 0.613 | 0.632 | 0.963 | 0.875 | 0.425
NCI-H1563 | 0.473 | 0.415 | 0.471 | 0.377 | 0.661 | 0.618 | 0.648 | 0.608 | 0.706 | 0.633 | 0.647 | 0.626 | 0.922 | 0.947 | 0.906 | 0.758 | 0.946 | 1 | 0.937 | 0.641
